Molecules are shown by their SMILES.

In the assay the test system is RSV (RSS strain). The assay is described as follows: RSV ELISA antigen reduction assay in Hep-2 cells. The note with it: RSV-infected Hep-2 cells, 3 day assay, ELISA OD 490 nm, 7-point dilution 50 μM-0.78 μM. The class given is cell-based, Respiratory Syncytial Virus. On the procedure: This was quantified by optical density (OD) measurement.
This assay was set up using all 96 wells of flat-bottomed 96-well plates. The outer wells were not subjected to any greater amount of evaporation than the inner wells during the 3 day assay period. (i.e. No “edge effect” seen).
Plates were set up one day before addition of virus and compounds. The assay then ran for 3 days with ELISA development taking place on the 4th day.
All 96 wells of a microtitre plate were seeded at a density of 4×10^3 Hep-2 cells/well in 100 μl/well of Growth Medium (GM) consisting of Dulbecco's MEM (DMEM) with Glutamax-1, Sodium Pyruvate, 1000 mg/l glucose and pyridoxine (Invitrogen, catalogue number 21885-025) and supplemented with 10% FBS. (See Plate 1).
A frozen vial of RSV (RSS strain provided by Virogen Ltd) stock solution was removed from the −80 freezer or liquid nitrogen store and diluted to a known Multiplicity of Infection (m.o.i) in Growth Medium.
The m.o.i. was calculated by prior titration of the virus stock (by the ELISA assay method) as the virus input required to achieve a window of at least 0.8 OD units between infected and uninfected control wells.
50 μl of diluted virus was added to infected, “virus+”, wells by multichannel pipette; 50 μl of Growth Medium was added to uninfected, cell control wells (CC) by multichannel pipette. (See Plate 2)
Plates were incubated at 37° C. for 1 hr to allow virus adsorption.
Compounds were made up at 4× strength in GM containing 2% DMSO (a final DMSO concentration in the assay of 0.5%).
Six compounds were tested on each assay plate as illustrated below. (See Plate 3). Compounds were tested in duplicate wells across a 7-point dilution series (from 50 μM-0.78 μM): in the presence of virus.
Virus infected, untreated wells served as the virus control (VC); Uninfected, untreated wells serve as the cell control (CC). The difference in absorbance between CC and VC wells constitutes the assay window.
200 μl of GM containing 2% DMSO was added to all wells except the ‘50 μM’ or first column, to which 392 μl of GM was added. 8 μl of each test compound was cherry-picked from a thawed Arrow screening plate and transferred to the appropriate well in the ‘50 μM’ column. Since the compound stock was at 10 mM in 100% DMSO, this will maintain the DMSO level at 2% at the top compound concentration.
Using a multichannel pipette, 200 μl was transferred from the 50 μM column to the 25 μM column, then to the 12.5 μM column and so on across the dilution plate creating a serial doubling dilution. Compounds were mixed upon transfer and tips changed between transfers, ensuring also that no compound was transferred to the last column of compound-free wells (0 μM).
The dilution plate was turned lengthways and 50 μl of compound easily transferred by multichannel pipette from the dilution plate to the assay plate, column by column. There was therefore an excess of 100 μl remaining in the dilution plate.
Plates were incubated at 37° C., 5% CO2 for 3 days.
Media was tapped out from wells directly into Virkon (1% solution in water) and plates were washed by immersing in a plastic box containing PBS. 50 μl/well of 75%/25% vol/vol acetone/methanol fixative was added by multichannel pipette and left for 3 mins.
Some 200 μl of blocking solution (2% Marvel in PBS containing 0.05% Tween) was added per well by multichannel pipette. Plates were incubated at 37° C. in a shaking incubator for 60 mins.
RSV mouse monoclonal antibody NCL-RSV3 (Novocastra) was diluted 1/400 in PBS/2% Marvel/0.05% Tween and 50 μl was added per well. Plates were incubated at 37° C. in a shaking incubator for 90 mins.
DAKo rabbit anti-mouse HRP conjugate (DAKO catalogue number P0260) was diluted 1/1000 in PBS/2% Marvel/0.05% Tween and 50 μl was added per well. Plates were incubated at 37° C. in a shaking incubator for 60 mins.
Substrate (SigmaFast OPD) was prepared in advance by dissolving 1 urea tablet in 20 mL water. […]
(An ELISA detects its analyte on a solid surface through an enzyme-linked reagent.)

[1] abbreviates: human respiratory syncytial virus, 72 h.

Regarding `CN1CCN(Cc2ccc(C(=O)N[C@H]3N=C(c4ccccc4)c4ccccc4NC3=O)o2)CC1` [Example 8, (S)-5-(4-Methyl-piperazin-1-ylmethyl)-furan-2-carboxylic acid (2-oxo-5-phenyl-2,3-dihydro-1H-benzo[e][1,4]diazepin-3-yl)-amide], the IC50 (commonly the concentration needed to halve the response being measured) under setting [1] is less than 5 µM.

Under setting [1], `Cc1cccc(C(=O)N[C@H]2N=C(c3ccccc3)c3ccccc3NC2=O)c1N1CCS(=O)(=O)CC1` [Example 23, (S)-2-(1,1-Dioxo-1λ6-thiomorpholin-4-yl)-3-methyl-N-(2-oxo-5-phenyl-2,3-dihydro-1H-benzo[e][1,4]diazepin-3-yl)-benzamide] displayed an IC50 of less than 5 µM.

On to `O=C(N[C@H]1N=C(c2ccccc2)c2ccccc2NC1=O)c1ccc(C(F)(F)F)cc1N1CCOCC1` [Example 18, (S)-2-Morpholin-4-yl-N-(2-oxo-5-phenyl-2,3-dihydro-1H-benzo[e][1,4]diazepin-3-yl)-4-trifluoromethyl-benzamide], for which the IC50 under setting [1] was less than 5 µM.

With `Cc1occ(S(=O)(=O)N2CCOCC2)c1C(=O)N[C@H]1N=C(c2ccccc2)c2ccccc2NC1=O` [Example 46, (S)-2-Methyl-4-(morpholin-4-sulfonyl)-furan-3-carboxylic acid (2-oxo-5-phenyl-2,3-dihydro-1H-benzo[e][1,4]diazepin-3-yl)-amide], the IC50 under setting [1] lay in the range of 5 to 10 µM.

Take `O=C(N[C@H]1N=C(c2ccccc2)c2ccccc2NC1=O)c1cccc(CN2CCOCC2)c1` [Example 42, (S)-3-Morpholin-4-ylmethyl-N-(2-oxo-5-phenyl-2,3-dihydro-1H-benzo[e][1,4]diazepin-3-yl)-benzamide]: the IC50 under setting [1] is less than 5 µM.

In turn, `O=C(N[C@H]1N=C(c2ccccc2)c2ccccc2NC1=O)c1ccc(C(F)(F)F)cc1N1CCCC1` [Example 16, (S)—N-(2-Oxo-5-phenyl-2,3-dihydro-1H-benzo[e][1,4]diazepin-3-yl)-2-pyrrolidin-1-yl-4-trifluoromethyl-benzamide] registered an IC50 under setting [1] of 5 to 10 µM.

For `O=C(N[C@H]1N=C(c2ccccc2)c2ccccc2NC1=O)c1ccc(F)cc1N1CCCCC1` [Example 12, (S)-4-Fluoro-N-(2-oxo-5-phenyl-2,3-dihydro-1H-benzo[e][1,4]diazepin-3-yl)-2-piperidin-1-yl-benzamide], the IC50 under setting [1] fell in the range of 5 to 10 µM.

The molecule `O=C(N[C@H]1N=C(c2ccccc2)c2ccccc2NC1=O)c1cccc(S(=O)(=O)N2CCCCC2)c1` [Example 30, (S)—N-(2-Oxo-5-phenyl-2,3-dihydro-1H-benzo[e][1,4]diazepin-3-yl)-3-(piperidine-1-sulfonyl)-benzamide] showed an IC50 under setting [1] of 5 to 10 µM.

In the case of `O=C(N[C@H]1N=C(c2ccccc2)c2ccccc2NC1=O)c1ccc(C(F)(F)F)cc1N1CCCCC1` [Example 17, (S)—N-(2-Oxo-5-phenyl-2,3-dihydro-1H-benzo[e][1,4]diazepin-3-yl)-2-piperidin-1-yl-4-trifluoromethyl-benzamide], the IC50 under setting [1] is 5 to 10 µM.

Under setting [1], `Cc1nc(-c2cnccn2)sc1C(=O)N[C@H]1N=C(c2ccccc2)c2ccccc2NC1=O` [Example 40, (S)-4-Methyl-2-pyrazin-2-yl-thiazole-5-carboxylic acid (2-oxo-5-phenyl-2,3-dihydro-1H-benzo[e][1,4]diazepin-3-yl)-amide] had an IC50 of 5 to 10 µM.

In the case of `O=C(NC1N=C(c2ccccc2)c2ccccc2NC1=O)c1ccccc1N1CCOCC1` (racemic) [Example 50, 2-Morpholin-4-yl-N-(2-oxo-5-phenyl-2,3-dihydro-1H-benzo[e][1,4]diazepin-3-yl)-benzamide], under setting [1], the IC50 was less than 5 µM.

Regarding `O=C(N[C@H]1N=C(c2ccccc2)c2ccccc2NC1=O)c1ncoc1-c1ccccc1` [Example 51, (S)-5-Phenyl-oxazole-4-carboxylic acid (2-oxo-5-phenyl-2,3-dihydro-1H-benzo[e][1,4]diazepin-3-yl)-amide], under setting [1], the concentration for half-maximal inhibition (IC50) is less than 5 µM.

`O=C1Nc2ccccc2C(c2ccccc2)=N[C@@H]1NC(=O)n1c(=O)n(C2CC2)c2ncccc21` [Example 27, (S)-3-Cyclopropyl-2-oxo-2,3-dihydro-imidazo[4,5-b]pyridine-1-carboxylic acid (2-oxo-5-phenyl-2,3-dihydro-1H-benzo[e][1,4]diazepin-3-yl)-amide] gave an IC50 under setting [1] of more than 10 µM.

Molecule `CN1CCN(c2ccc(C(=O)N[C@H]3N=C(c4ccccc4)c4ccccc4NC3=O)cc2)CC1` [Example 29, (S)-4-(4-Methyl-piperazin-1-yl)-N-(2-oxo-5-phenyl-2,3-dihydro-1H-benzo[e][1,4]diazepin-3-yl)-benzamide] registered an IC50 under setting [1] of less than 5 µM.

`O=C(N[C@H]1N=C(c2ccccc2)c2ccccc2NC1=O)c1cccc(S(=O)(=O)N2CCOCC2)c1` [Example 31, (S)-3-(Morpholine-4-sulfonyl)-N-(2-oxo-5-phenyl-2,3-dihydro-1H-benzo[e][1,4]diazepin-3-yl)-benzamide] gave an IC50 under setting [1] of 5 to 10 µM.

For `O=C(N[C@H]1N=C(c2ccccc2)c2ccccc2NC1=O)c1ccc(CN2CCOCC2)o1` [Example 32, (S)-5-Morpholin-4-ylmethyl-furan-2-carboxylic acid (2-oxo-5-phenyl-2,3-dihydro-1H-benzo[e][1,4]diazepin-3-yl)-amide], the IC50 under setting [1] is less than 5 µM.

For `O=C(N[C@H]1N=C(c2ccccc2)c2ccccc2NC1=O)c1ccc(CN2CCCCC2)o1` [Example 10, (S)-5-Piperidin-1-ylmethyl-furan-2-carboxylic acid (2-oxo-5-phenyl-2,3-dihydro-1H-benzo[e][1,4]diazepin-3-yl)-amide], the IC50 under setting [1] was less than 5 µM.

`O=C(N[C@H]1N=C(c2ccccc2)c2ccccc2NC1=O)c1sccc1CN1CCOCC1` [Example 48, (S)-3-Morpholin-4-ylmethyl-thiophene-2-carboxylic acid (2-oxo-5-phenyl-2,3-dihydro-1H-benzo[e][1,4]diazepin-3-yl)-amide]: the IC50 under setting [1] was less than 5 µM.

The molecule `O=C(N[C@H]1N=C(c2ccccc2)c2ccccc2NC1=O)c1ccccc1N1CCS(=O)(=O)CC1` [Example 3] showed an IC50 of 5 to 10 µM.

The molecule `O=C(N[C@H]1N=C(c2ccccc2)c2ccccc2NC1=O)c1cc(Cl)ccc1N1CCS(=O)(=O)CC1` [Example 6, (S)-5-Chloro-2-(1,1-dioxo-1λ6-thiomorpholin-4-yl)-N-(2-oxo-5-phenyl-2,3-dihydro-1H-benzo[e][1,4]diazepin-3-yl)-benzamide] yielded an IC50 under setting [1] of 5 to 10 µM.

`O=C(N[C@H]1N=C(c2ccccc2)c2ccccc2NC1=O)c1ccc(CN2CCOCC2)s1` [Example 49, (S)-5-Morpholin-4-ylmethyl-thiophene-2-carboxylic acid (2-oxo-5-phenyl-2,3-dihydro-1H-benzo[e][1,4]diazepin-3-yl)-amide] returned an IC50 under setting [1] of less than 5 µM.

Under setting [1], `O=C(N[C@H]1N=C(c2ccccc2)c2ccccc2NC1=O)c1csc(-c2ccncc2)n1` [Example 39, (S)-2-Pyridin-4-yl-thiazole-4-carboxylic acid (2-oxo-5-phenyl-2,3-dihydro-1H-benzo[e][1,4]diazepin-3-yl)-amide] displayed an IC50 of less than 5 µM.

Under setting [1], `O=C(N[C@H]1N=C(c2ccccc2)c2ccccc2NC1=O)c1ccoc1CN1CCOCC1` [Example 41, (S)-2-Morpholin-4-ylmethyl-furan-3-carboxylic acid (2-oxo-5-phenyl-2,3-dihydro-1H-benzo[e][1,4]diazepin-3-yl)-amide] gave an IC50 of less than 5 µM.

The record behind these values is patent publication US20080139536A1, “Benzodiazepines for Treating or Preventing Rsv Infection” (Novartis Pharmaceuticals Corporation, priority 2004, published 2008).
